The source of these data is patent US10513523B2, “Imidazopyrazines and pyrazolopyrimidines and their use as AMPA receptor modulators” (Janssen Pharmaceutica NV, priority 2015, dated 2019).

Test [1] concerns the target GluA1o-γ8 (GRIA1o-CACNG8 fusion construct; TARP γ8 dependent AMPA receptor) (Homo sapiens (Human), UniProt P42261+Q8WXS5). Put plainly: Calcium flux assay (FLIPR), inhibition of glutamate response of GluA1o-γ8 channel. The class given is cell-based. The settings on record: HEK293 cells stably expressing GRIA1o-CACNG8 fusion; 15 μM glutamate; pIC50 = negative log of IC50 in molar; read-out: GluR1-γ8 (pIC50) (converted). Summed up: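 Potency is the midpoint of a four-parameter logistic fit to control-normalized FLIPR calcium responses elicited by 15 μM glutamate. Stable HEK293 cells carried a fused GluA1o-γ8 construct and were preincubated with compound and calcium dye in pH 7.4 HEPES buffer.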
Background: A change in cytosolic calcium serves as a functional read-out for many receptors and channels.

For test [2], the system named is endogenous γ8-containing AMPA receptor currents. In words: Whole-cell electrophysiology on acutely-dissociated mouse hippocampal neurons. Type of test: cell-based. Particulars: 10 mM glutamate, 500 ms, held at -60 mV. As to the method: The effects of selected compounds upon endogenous γ 8-containing AMPA receptor currents was evaluated using whole-cell electrophysiology on acutely-dissociated mouse hippocampal neurons. Hippocampus was chosen for this assay, since CACNG8 (the protein encoded by this gene is a type I transmembrane AMPA receptor regulatory protein i.e., TARP) is preferentially enriched in this brain region (Tomita et al. (2003). “Functional studies and distribution define a family of transmembrane AMPA receptor regulatory proteins.” J Cell Biol 161(4): 805-816.2003).
Hippocampi were dissected from C57black6 mice at 4-12 weeks postnatal, following the protocol described by Brewer (Brewer, G. J. (1997). “Isolation and culture of adult rat hippocampal neurons.” Journal of Neuroscience Methods 71(2): 143-155). The following is a brief summary of the procedure. Mice were asphyxiated with CO2 then decapitated. The brain was rapidly removed, then placed into ice-cold HABG medium. The recipe for HABG medium was: HibernateA supplemented with 2% B27 and 0.5 mM Glutamax (all reagents from Life Technologies). Hippocampi were micro-dissected from the brains, then washed with HABG without calcium (Hibernate A minus Calcium, BrainBits; 2% B27, Life Technologies; 0.5 mM glutamax, Life Technologies).
The hippocampi were then transferred to HABG without calcium, supplemented with 2 mg/mL papain (Worthington Biochemical). They were incubated at 30° C. on a roller for 40 min, then gently triturated with a fire-polished glass pipette. The supernatant containing dissociated neurons was collected, then centrifuged for 2 min at 200 g. The cell pellet was collected, and then resuspended in 8 mL of HABG. Live cells were counted, then plated onto 12 mm glass coverslips in HABG (2 mL) in 24-well plates at a density of 50-100 cells per coverslip. These cells were maintained at room temperature until use.
Whole-cell electrophysiology was performed using 1.5 mm diameter glass capillary tubes (World Precision Instruments TW150-4), pulled to a fine tip with a Sutter P-97 micropipette puller. The intracellular buffer was 90 mM KF, 30 mM KCl, 10 mM HEPES, and 5 mM EGTA, pH 7.4, 290mOs. The extracellular buffer was 135 mM NaCl, 4 mM KCl, 2 mM CaCl2, 1 mM MgCl2, 5 mM glucose, 10 mM HEPES, pH 7.4, 300 mOs. The open-tip resistances of the micropipettes using these solutions were 2-4 MΩ. Whole-cell recordings of neuron cell bodies were performed in voltage-clamp mode using an Axon Axopatch 200B amplifier. Whole-cell current was measured holding the interior of the cell at −60 mV, using a 5 kHz lowpass filter. The cells were continuously perfused through 7 mm square glass barrels using a solenoid-controlled solution switching device (Warner Instruments, PF-77B). The peak current in response to a 500 ms exposure to 10 mM glutamate every 5 seconds was measured, before and after exposure to test compound.
For analysis, the mean peak current of 5 traces in the presence of test compound was divided by the mean peak current of 5 traces prior to the addition of test compound. Compounds were tested at concentrations at least ten times higher than their estimated potency in the calcium flux assay, in order to ensure near-saturating occupancy of the receptor.

Sequence of GluA1o-γ8 (GRIA1o-CACNG8 fusion construct; TARP γ8 dependent AMPA receptor) (P42261 other isoform, or with tags, fused parts or gaps): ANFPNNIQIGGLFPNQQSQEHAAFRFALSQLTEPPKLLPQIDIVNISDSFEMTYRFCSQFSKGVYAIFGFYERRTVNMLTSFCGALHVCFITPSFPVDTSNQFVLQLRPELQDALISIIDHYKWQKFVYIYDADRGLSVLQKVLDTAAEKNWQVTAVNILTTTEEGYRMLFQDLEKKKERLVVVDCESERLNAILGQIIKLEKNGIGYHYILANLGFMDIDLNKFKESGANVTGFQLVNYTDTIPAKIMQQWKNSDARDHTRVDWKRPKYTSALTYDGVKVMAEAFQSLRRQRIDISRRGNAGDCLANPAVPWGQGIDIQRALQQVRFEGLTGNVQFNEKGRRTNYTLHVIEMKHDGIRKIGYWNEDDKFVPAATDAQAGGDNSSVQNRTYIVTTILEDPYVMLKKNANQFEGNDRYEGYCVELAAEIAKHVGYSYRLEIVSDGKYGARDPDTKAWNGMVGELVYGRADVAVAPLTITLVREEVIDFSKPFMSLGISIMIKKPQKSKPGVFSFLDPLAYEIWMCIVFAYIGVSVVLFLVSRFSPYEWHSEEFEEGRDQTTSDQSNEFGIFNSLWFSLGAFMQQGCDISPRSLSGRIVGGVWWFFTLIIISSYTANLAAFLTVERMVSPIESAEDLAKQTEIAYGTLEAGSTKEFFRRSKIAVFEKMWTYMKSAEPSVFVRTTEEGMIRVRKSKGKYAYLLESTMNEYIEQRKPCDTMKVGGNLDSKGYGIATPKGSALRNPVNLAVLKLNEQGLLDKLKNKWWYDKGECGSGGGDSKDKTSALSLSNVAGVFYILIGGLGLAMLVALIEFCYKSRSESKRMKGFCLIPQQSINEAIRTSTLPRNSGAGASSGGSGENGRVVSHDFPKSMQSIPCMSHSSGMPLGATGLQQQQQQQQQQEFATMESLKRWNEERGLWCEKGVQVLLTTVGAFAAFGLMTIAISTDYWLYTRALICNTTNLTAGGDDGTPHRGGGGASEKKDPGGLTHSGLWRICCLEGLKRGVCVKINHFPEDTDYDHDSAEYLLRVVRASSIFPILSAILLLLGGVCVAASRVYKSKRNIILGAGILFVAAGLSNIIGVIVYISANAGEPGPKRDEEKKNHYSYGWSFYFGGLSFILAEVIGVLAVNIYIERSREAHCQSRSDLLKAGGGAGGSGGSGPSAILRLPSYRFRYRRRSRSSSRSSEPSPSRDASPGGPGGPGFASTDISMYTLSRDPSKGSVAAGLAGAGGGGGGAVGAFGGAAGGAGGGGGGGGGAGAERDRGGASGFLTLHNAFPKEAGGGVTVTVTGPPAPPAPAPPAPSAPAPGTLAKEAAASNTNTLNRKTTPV

As for `CC(=O)N1CCN(c2nccn3c(-c4ccc(O)cc4)c(-c4ccc(F)cc4)nc23)CC1` [Example 1, 1-[4-[2-(4-Fluorophenyl)-3-(4-hydroxyphenyl)imidazo[1,2-a]pyrazin-8-yl]piperazin-1-yl]ethanone], the IC50 in test [1] is 6.31 nM. Further, the “peak current (% control)” value in test [2] (10 μM test compound) came out at 81%.
For `O=C1Cc2cc(-c3c(-c4ccc(F)cc4)nc4c(N5CCC(O)CC5)nccn34)ccc2N1` [Example 37, 5-[2-(4-Fluorophenyl)-8-(4-hydroxy-1-piperidyl)imidazo[1,2-a]pyrazin-3-yl]indolin-2-one], in test [1], the IC50 is 0.316 nM. In addition, the “peak current (% control)” value in test [2] (0.1 μM test compound) came to 66%.
On the same counts, the results for `CC(=O)N1CCN(c2nccn3c(-c4ccc5c(c4)CC(=O)N5)c(-c4ccc(C#N)cc4)nc23)CC1` [Example 107, 4-[8-(4-Acetylpiperazin-1-yl)-3-(2-oxoindolin-5-yl)imidazo[1,2-a]pyrazin-2-yl]benzonitrile] are 2.51 nM and 67%.
Regarding `CC(=O)N1CCN(c2nccn3c(-c4ccc5c(c4)CC(=O)N5)c(-c4ccc(F)cc4)nc23)CC1` [Example 12, 5-[8-(4-Acetylpiperazin-1-yl)-2-(4-fluorophenyl)imidazo[1,2-a]pyrazin-3-yl]indolin-2-one], in test [1], the IC50 is 0.398 nM. Moreover, the “peak current (% control)” value in test [2] (0.1 μM test compound) was found to be 69%.
For the compound `Oc1ccc(-c2c(-c3ccc(F)cc3)nc3c(N4CCOCC4)nccn23)cc1` [Example 83, 4-[2-(4-Fluorophenyl)-8-morpholino-imidazo[1,2-a]pyrazin-3-yl]-phenol], in test [1], the IC50 is 12.6 nM. Besides, the “peak current (% control)” value in test [2] (10 μM test compound) was found to be 78%.
In the case of `CC(=O)N1CCN(c2nccn3c(-c4ccc5c(c4)CC(=O)N5)c(Cc4ccccc4)nc23)CC1` [Example 17, 5-[8-(4-Acetylpiperazin-1-yl)-2-benzyl-imidazo[1,2-a]pyrazin-3-yl]indolin-2-one], the IC50 in test [1] is 1.26 nM. For the same compound, the “peak current (% control)” value in test [2] (0.1 μM test compound) is 68%.
For the compound `Fc1ccc(-c2nc3c(N4CCOCC4)nccn3c2-c2ccc3[nH]ncc3c2)cc1` [Example 10, 4-[2-(4-Fluorophenyl)-3-(1H-indazol-5-yl)imidazo[1,2-a]pyrazin-8-yl]morpholine], in test [1], the IC50 was 0.631 nM. Moreover, the “peak current (% control)” value is reported as 64% in test [2] (0.1 μM test compound) and 74% in test [2] (1 μM test compound).
As to `Oc1ccc(-c2c(-c3ccc(F)cc3)nc3c(N4CC5(COC5)C4)nccn23)cc1` [Example 7, 4-[2-(4-Fluorophenyl)-8-(6-oxa-2-azaspiro[3.3]heptan-2-yl)imidazo[1,2-a]pyrazin-3-yl]phenol], the IC50 in test [1] is 50.1 nM. Further, the “peak current (% control)” value in test [2] (10 μM test compound) is reported as 55%.
As for `O=C1Cc2cc(-c3c(-c4ccc(F)cc4)nc4c(N5CCC(O)C5)nccn34)ccc2N1` (centres unmarked) [Example 41, 5-[2-(4-Fluorophenyl)-8-(3-hydroxypyrrolidin-1-yl)imidazo[1,2-a]pyrazin-3-yl]indolin-2-one], the IC50 in test [1] is 0.631 nM.
On the same count and under the same terms, with `CC(=O)N1CCN(c2ncc(Br)n3c(-c4ccc5c(c4)CC(=O)N5)c(Cc4ccccc4)nc23)CC1` [Example 113, 5-(8-(4-Acetylpiperazin-1-yl)-2-benzyl-5-bromoimidazo[1,2-a]pyrazin-3-yl)indolin-2-one] the figure was 0.316 nM.
As to `O=C1Cc2cc(-c3c(-c4ccccc4)nc4c(N5CCC(F)CC5)nccn34)ccc2N1` [Example 75, 5-[8-(4-Fluoro-1-piperidyl)-2-phenyl-imidazo[1,2-a]pyrazin-3-yl]indolin-2-one], in test [1], the IC50 was 0.0631 nM.
As for `O=C(Nc1ccccc1)c1nc2c(N3CCOCC3)nccn2c1-c1ccc2[nH]c(=O)[nH]c2c1` [Example 140, 8-Morpholino-3-(2-oxo-1,3-dihydrobenzimidazol-5-yl)-N-phenyl-imidazo[1,2-a]pyrazine-2-carboxamide], in test [1], the IC50 is 20 nM.
The same measure, in the same setting: with `COc1nccn2c(-c3ccc4[nH]c(=O)[nH]c4c3)c(-c3ccc(F)cc3)nc12` [Example 99, 5-[2-(4-Fluorophenyl)-8-methoxy-imidazo[1,2-a]pyrazin-3-yl]-1,3-dihydrobenzimidazol-2-one] the figure was 25.1 nM.
In the case of `O=C1CN(c2nccn3c(-c4ccc5c(c4)CC(=O)N5)c(C(=O)Nc4ccccc4)nc23)CCN1` [Example 143, 3-(2-Oxoindolin-5-yl)-8-(3-oxopiperazin-1-yl)-N-phenyl-imidazo[1,2-a]pyrazine-2-carboxamide], the IC50 in test [1] is 20 nM.
